Active and inactive are the calls of the source. The calls are words filed in the database; no cut-off is given here.
Key:
Trypanosoma cruzi = test: Trypanocidal activity against nifurtimox-sensitive Trypanosoma cruzi Tulahuen CL2 infected in human MRC5 SV2 cells assessed as parasite growth inhibition after […] by beta-galactosidase assay; format: functional, organism-based
[1] = Cytotoxicity against human TZM-bl cells assessed as cell viability after 48 hrs by WST1 assay; format: cell-based
[2] = tested on: Trypanosoma brucei brucei; test: Antitrypanocidal activity against suramin-sensitive Trypanosoma brucei brucei Squib427 assessed as reduction in parasite growth after 72 hrs; format: functional, organism-based; conditions: Squib427, 72 h
Plasmodium falciparum = test: Antiplasmodial activity against chloroquine-resistant Plasmodium falciparum K1 infected in human O positive erythrocyte assessed as reduction in parasitemia after 72 hrs; format: functional, organism-based; conditions: K1, 72 h
[3] = tested on: Human immunodeficiency virus 1; test: Antiviral activity against HIV1 infected in human TZM-bl cells assessed as viral inhibition pre-incubated for 30 mins prior to infection measured after 48 hrs by; format: functional, organism-based; conditions: Human immunodeficiency virus 1, TZM-bl
Leishmania infantum = test: Antileishmanial activity against Leishmania infantum MHOM/MA (BE)/67 infected in primary peritoneal mouse macrophages assessed as reduction in parasite burdun; format: functional, organism-based
[4] = tested on: Trypanosoma brucei rhodesiense; test: Antitrypanocidal activity against suramin-sensitive Trypanosoma brucei rhodesiense STIB-900 assessed as reduction in parasite growth after 72 hrs; format: functional, organism-based; conditions: STIB-900, 72 h
[5] = Cytotoxicity against human MRC5 SV2 cells assessed as reduction in cell growth after 72 hrs; format: cell-based; conditions: MRC5, 72 h
[6] = Solubility of the compound in 10 mM PBS buffer solution at pH7.4 at 3.125 to 200 uM after 2 hrs; format: physicochemical; conditions: pH 7.4
[7] = Metabolic stability in mouse plasma assessed as compound remaining after 1 hr; format: ADME, cell-free; conditions: read-out: Stability
[8] = Metabolic stability in human liver microsomes assessed as compound remaining after 15 mins by UPLC analysis; format: ADME; conditions: read-out: Stability
[9] = Metabolic stability in human plasma assessed as compound remaining after 1 hr; format: ADME, cell-free; conditions: read-out: Stability
[10] = Stability of the compound in PBS buffer assessed as recovery at pH 7.4 measured after 24 hrs by UPLC analysis; format: physicochemical; conditions: read-out: Drug recovery
[11] = Octanol-phosphate buffer partition coefficient, log D of the compound at pH 7.4 after 2 hrs of shaking after 2 hrs; format: physicochemical
[12] = Metabolic stability in mouse liver microsomes assessed as compound remaining after 15 mins by UPLC analysis; format: ADME; conditions: read-out: Stability
[13] = tested on: Trypanosoma brucei brucei; test: Trypanocidal activity against suramin-sensitive Trypanosoma brucei brucei Squib427 infected in Swiss mouse assessed as reduction in parasitemia at 10 mg/kg first dose through orally and next four dosed administered intraperitoneally for 4 days; format: functional; conditions: Squib427, 96 h, route oral
[14] = tested on: Trypanosoma brucei brucei; test: Trypanocidal activity against suramin-sensitive Trypanosoma brucei brucei Squib427 infected in Swiss mouse assessed as mean survival time at 10 mg/kg first dose through orally and next four dosed administered intraperitoneally for 4 days (reference value: 7.2 days); format: functional; conditions: route oral
[15] = tested on: Trypanosoma brucei brucei; test: Trypanocidal activity against suramin-sensitive Trypanosoma brucei brucei Squib427 infected in Swiss mouse assessed as survivors on day 14 post infection at 10 mg/kg first dose through orally and next four dosed administered intraperitoneally for 4 days; format: functional, organism-based; design: dose 10 mg/kg

| Compound | IC50 (Trypanosoma cruzi) [µM] | CC50 at 48 h [1] [µM] | IC50 [2] [µM] | IC50 (Plasmodium falciparum) [µM] | EC50 [3] [µM] | IC50 (Leishmania infantum) [µM] | IC50 [4] [µM] | IC50 [5] [µM] | other results |
| --- | --- | --- | --- | --- | --- | --- | --- | --- | --- |
| NS(=O)(=O)c1ccc(Oc2ccc(NC(=O)N[C@H]3[C@@H]4COc5c(F)ccc(F)c5[C@@H]43)nc2)cc1 | > 64 | > 100 | 32.1 | 29.5 | 0.001 | 32.5 | 38.5 | – | – |
| N#Cc1ccc(NC(=O)N[C@@H]2[C@@H]3COc4c(F)ccc(F)c4[C@@H]32)nc1 | > 64 | – | > 64 | 64 | 0.001 | > 64 | > 64 | > 64 | – |
| CO[C@H]1O[C@@H]2O[C@@]3(C)CC[C@H]4[C@H](C)CC[C@@H]([C@H]1C)[C@@]24OO3 | – | – | – | > 64 | – | – | – | – | – |
| c1ccc(Nc2ccnc(Nc3ccccc3)n2)cc1 | 4.45 | – | 7.27 | 21.8 | > 10 | 22.2 | 2.53 | 13.2 | – |
| O=C(Cn1ccnc1[N+](=O)[O-])NCc1ccccc1 [BENZNIDAZOLE] | 2.56 | – | – | – | – | – | – | – | – |
| CCN(CC)CCCC(C)Nc1ccnc2cc(Cl)ccc12 (stereo unspecified) [CHLOROQUINE] | – | – | – | > 64 | – | – | – | – | – |
| Cc1cc(C)c(Nc2ccnc(Nc3ccc(C#N)cc3)n2)c(C)c1 [DAPIVIRINE] | 1.25 | 2.47 | > 16 | 4.88 | 0.002 | > 64 | 19.5 | > 64 | – |
| CC(C)Nc1cccnc1N1CCN(C(=O)c2cc3cc(NS(C)(=O)=O)ccc3[nH]2)CC1 [DELAVIRDINE] | > 64 | > 50 | > 64 | 64 | 0.055 | > 64 | > 64 | > 64 | – |
| O=C1Nc2ccc(Cl)cc2[C@@](C#CC2CC2)(C(F)(F)F)O1 [EFAVIRENZ] | 8.56 | > 50 | 30.2 | 43.8 | – | 7.4 | 19.6 | 25.8 | – |
| Cc1cc(C#N)cc(C)c1Oc1nc(Nc2ccc(C#N)cc2)nc(N)c1Br [ETRAVIRINE] | > 64 | > 25 | > 64 | 64 | 0.001 | 41.6 | > 64 | > 64 | – |
| CCc1nn(CCO)c(CC)c1Oc1cc(C#N)cc(C#N)c1 [LERSIVIRINE] | > 64 | > 100 | > 64 | > 64 | 0.003 | > 64 | 54.7 | – | – |
| Nc1nc(N)nc(Nc2ccc([As]3SCC(CO)S3)cc2)n1 (stereo unspecified) [MELARSOPROL] | – | – | 0.03 | – | – | – | 0.02 | 7.4 | solubility at 2 h [6]: 25 µM; remaining at 1 h [7]: 100%; remaining at […] [8]: 84%; remaining at 1 h [9]: 100%; remaining at 24 h [10]: 100%; logD at 2 h [11]: 4.51; remaining at […] [12]: 72% |
| CCCCCCCCCCCCCCCCOP(=O)([O-])OCC[N+](C)(C)C [MILTEFOSINE] | – | – | – | – | – | 6.17 | – | – | – |
| Cc1ccnc2c1NC(=O)c1cccnc1N2C1CC1 [NEVIRAPINE] | > 64 | > 50 | > 64 | 64 | 0.144 | > 64 | > 64 | > 64 | – |
| CC1CS(=O)(=O)CCN1/N=C/c1ccc([N+](=O)[O-])o1 (stereo unspecified) [NIFURTIMOX] | 0.7 | – | – | – | – | – | – | – | – |
| Cc1ccc(C(=O)Nc2ccc(S(=O)(=O)O)c3cc(S(=O)(=O)O)cc(S(=O)(=O)O)c23)cc1NC(=O)c1cccc(NC(=O)Nc2cccc(C(=O)Nc3cc(C(=O)Nc4ccc(S(=O)(=O)O)c5cc(S(=O)(=O)O)cc(S(=O)(=O)O)c45)ccc3C)c2)c1 [SURAMIN] | – | – | 0.02 | – | – | – | 0.02 | > 64 | inhibition in vivo at 10 mg/kg [13]: 100%; MST [14]: >21 days; Activity [15]: Active |
| CC(C)=CCOc1cc(NC(=S)c2ccoc2C)ccc1Cl [UC 781] | > 64 | > 100 | > 64 | 27.4 | 0.003 | > 64 | 38.5 | > 64 | – |
